Results on 19 compounds are retold here after patent publication US20260216207A1, “7-CARBONYLSTAUROSPORINE DERIVATIVE, PREPARATION METHOD THEREFOR, AND USE THEREOF” (HANGZHOU KEXING BIOCHEM. CO., LTD., priority 2023, published 2026).

Where two headings read alike, the source gives them in different places. Where only a bound is given, the exact number is not on record here.

What is called IC50 is the concentration at which inhibition is half-maximal.

What all share (type): biochemical
For experiment [1], the target named is PIM-1 kinase (Homo sapiens, UniProt P11309). In words: HTRF KinEASE kinase assay, PIM-1 inhibitory activity. The source says:
Inhibitory activities against PIM-1, TRKA, TRKB, FLT3, PKCδ, PKCε, PKCη, PAK4, PLK1, ROCK2, and IKKβ kinases were all determined using an HTRF®KinEASE™ kinase assay kit based on a time-resolved fluorescence technology. 7-carbonylstaurosporine (7OSTA) and TP-3654 were used as positive controls, and 3 duplicate wells were set in parallel. Specific operation steps are as follows. • (1) A kinase buffer was formulated and then used to formulate compounds to be tested, a positive drug, a substrate, kinases, and adenosine triphosphate (ATP). • (2) 2 μL of the substrate, 2 μL of the kinases (the kinases were not added in a negative control group), 4 μL of the compounds to be tested or the positive drug (4 μL of a buffer was added in a positive control group, and 6 μL of a buffer was added in the negative control group), and 2 μL of the ATP were sequentially added into each well of a 384-well microplate, and the microplate was sealed with a membrane and then centrifuged for uniform mixing. • (3) According to different types of the kinases, incubation was performed in an incubator at 37° C. for a specific time. • (4) A detection solution was formulated using XL-665, an antibody, and a detection buffer, 10 µL of the detection solution was added into each well, the microplate was sealed with a membrane and then centrifuged for uniform mixing, and standing was performed at room temperature for 1 hour. • (5) Fluorescence value intensities F1 and F2 at wavelengths of 620 nm and 665 nm were measured using a multifunctional microplate tester, respectively. A signal ratio was calculated as F2/F1×10000, and then an IC50 value was calculated using Graphpad Prism 8 software.

In experiment [2] the target is T1, IKKβ (Homo sapiens, UniProt O14920).
T1 sequence (O14920 1-756): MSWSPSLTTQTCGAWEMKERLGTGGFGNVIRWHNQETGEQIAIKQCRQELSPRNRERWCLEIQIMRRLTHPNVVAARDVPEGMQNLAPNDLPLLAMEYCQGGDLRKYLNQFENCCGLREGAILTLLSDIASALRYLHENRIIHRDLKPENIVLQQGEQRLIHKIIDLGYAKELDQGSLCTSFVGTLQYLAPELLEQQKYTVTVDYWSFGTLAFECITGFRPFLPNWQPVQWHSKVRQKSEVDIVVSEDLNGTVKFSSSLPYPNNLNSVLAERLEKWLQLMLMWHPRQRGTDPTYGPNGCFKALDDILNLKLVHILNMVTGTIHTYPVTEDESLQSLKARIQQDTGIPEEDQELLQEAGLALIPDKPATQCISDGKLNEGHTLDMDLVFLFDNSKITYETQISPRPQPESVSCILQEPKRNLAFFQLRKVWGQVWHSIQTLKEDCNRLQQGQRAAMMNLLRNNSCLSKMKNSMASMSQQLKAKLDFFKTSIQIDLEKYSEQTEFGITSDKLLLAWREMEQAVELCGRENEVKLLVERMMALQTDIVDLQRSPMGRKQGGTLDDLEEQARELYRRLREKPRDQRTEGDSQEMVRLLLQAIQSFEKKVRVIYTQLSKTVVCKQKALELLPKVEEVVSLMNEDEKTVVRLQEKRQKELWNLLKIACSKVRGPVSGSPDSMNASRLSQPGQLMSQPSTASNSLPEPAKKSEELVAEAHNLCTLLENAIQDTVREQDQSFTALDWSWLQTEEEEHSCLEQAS
Description: HTRF KinEASE kinase assay, IKKβ (kinase selectivity). The method, then:
(§1) Inhibitory activities against PIM-1, TRKA, TRKB, FLT3, PKCδ, PKCε, PKCη, PAK4, PLK1, ROCK2, and IKKβ kinases were all determined using an HTRF®KinEASE™ kinase assay kit based on a time-resolved fluorescence technology. 7-carbonylstaurosporine (7OSTA) and TP-3654 were used as positive controls, and 3 duplicate wells were set in parallel. […] A signal ratio was calculated as F2/F1×10000, and then an IC50 value was calculated using Graphpad Prism 8 software.

In experiment [3] the target is ROCK2 (Homo sapiens, UniProt O75116). Description: HTRF KinEASE kinase assay, ROCK2 (kinase selectivity). The method, then:
as §1
For orientation: In TR-FRET formats the signal depends on donor and acceptor labels being close together.

For experiment [4], the target named is TRKB (Homo sapiens, UniProt Q16620). Description: HTRF KinEASE kinase assay, TRKB (kinase selectivity). The method, then: as §1
The target in experiment [5] is PKCη (Homo sapiens, UniProt P24723). In words: HTRF KinEASE kinase assay, PKCη (kinase selectivity). The method, then: as §1
Experiment [6] concerns the target PKCδ (Homo sapiens, UniProt Q05655). In words: HTRF KinEASE kinase assay, PKCδ (kinase selectivity). The method, then:
as §1

The target of experiment [7] is T2, FLT3 (Homo sapiens, UniProt P36888).
T2 sequence (P36888 27-993): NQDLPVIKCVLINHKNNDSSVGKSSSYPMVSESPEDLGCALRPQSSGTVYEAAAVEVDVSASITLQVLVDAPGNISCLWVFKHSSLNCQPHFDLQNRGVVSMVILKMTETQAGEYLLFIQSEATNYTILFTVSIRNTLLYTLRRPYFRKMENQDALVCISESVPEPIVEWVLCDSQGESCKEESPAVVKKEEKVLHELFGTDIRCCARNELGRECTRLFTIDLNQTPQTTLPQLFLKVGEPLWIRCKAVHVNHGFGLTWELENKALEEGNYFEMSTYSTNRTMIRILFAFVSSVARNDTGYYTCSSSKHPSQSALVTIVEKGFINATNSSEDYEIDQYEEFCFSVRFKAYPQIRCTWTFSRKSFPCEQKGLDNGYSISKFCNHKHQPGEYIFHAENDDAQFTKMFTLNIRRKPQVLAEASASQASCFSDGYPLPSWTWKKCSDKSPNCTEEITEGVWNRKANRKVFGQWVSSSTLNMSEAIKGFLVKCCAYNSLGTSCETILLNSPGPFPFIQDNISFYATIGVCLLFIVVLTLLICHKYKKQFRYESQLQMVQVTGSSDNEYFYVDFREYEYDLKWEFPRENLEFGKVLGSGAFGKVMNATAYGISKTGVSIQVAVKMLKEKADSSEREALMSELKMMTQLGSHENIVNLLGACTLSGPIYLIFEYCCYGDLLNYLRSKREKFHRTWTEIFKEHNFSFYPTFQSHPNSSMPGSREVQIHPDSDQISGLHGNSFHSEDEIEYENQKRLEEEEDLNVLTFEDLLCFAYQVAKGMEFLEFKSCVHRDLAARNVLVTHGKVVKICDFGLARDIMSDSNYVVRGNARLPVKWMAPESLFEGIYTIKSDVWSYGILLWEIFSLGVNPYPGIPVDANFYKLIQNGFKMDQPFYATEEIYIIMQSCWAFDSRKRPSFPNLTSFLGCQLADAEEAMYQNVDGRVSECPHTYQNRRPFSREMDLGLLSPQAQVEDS
Description: HTRF KinEASE kinase assay, FLT3 (kinase selectivity). The method, then: as §1

The target in experiment [8] is TRKA (Homo sapiens, UniProt P04629). Description: HTRF KinEASE kinase assay, TRKA (kinase selectivity). The method, then: as §1
Experiment [9] deals with PLK1 (Homo sapiens, UniProt P53350). In words: HTRF KinEASE kinase assay, PLK1 (kinase selectivity). The method, then:
as §1

Experiment [10] deals with T3, PKCε (Homo sapiens, UniProt Q02156).
T3 sequence (Q02156 1-737): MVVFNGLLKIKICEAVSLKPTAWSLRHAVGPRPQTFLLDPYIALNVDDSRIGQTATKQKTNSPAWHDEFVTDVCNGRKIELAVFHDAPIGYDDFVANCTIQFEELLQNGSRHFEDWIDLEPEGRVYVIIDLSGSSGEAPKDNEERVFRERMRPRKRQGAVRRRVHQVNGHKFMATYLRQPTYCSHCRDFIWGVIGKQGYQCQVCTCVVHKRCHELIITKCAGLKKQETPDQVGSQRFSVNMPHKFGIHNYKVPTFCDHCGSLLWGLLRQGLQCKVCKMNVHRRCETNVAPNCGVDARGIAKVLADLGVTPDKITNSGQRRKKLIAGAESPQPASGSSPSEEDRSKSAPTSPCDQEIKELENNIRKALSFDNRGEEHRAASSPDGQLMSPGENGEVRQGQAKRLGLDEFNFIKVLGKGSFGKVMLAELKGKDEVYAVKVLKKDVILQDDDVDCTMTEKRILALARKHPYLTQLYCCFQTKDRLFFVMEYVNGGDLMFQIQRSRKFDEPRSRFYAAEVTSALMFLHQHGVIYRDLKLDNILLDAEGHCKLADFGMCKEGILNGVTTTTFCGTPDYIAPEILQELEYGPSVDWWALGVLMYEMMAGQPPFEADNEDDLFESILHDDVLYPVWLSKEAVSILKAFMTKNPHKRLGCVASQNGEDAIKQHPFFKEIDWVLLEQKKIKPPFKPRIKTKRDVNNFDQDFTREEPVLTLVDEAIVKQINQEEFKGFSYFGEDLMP
In words: HTRF KinEASE kinase assay, PKCε (kinase selectivity). The method, then:
as §1

Experiment [11] has as its target PAK4 (Homo sapiens, UniProt O96013). Description: HTRF KinEASE kinase assay, PAK4 (kinase selectivity). The method, then: as §1
[12] abbreviates: HTRF KinEASE kit, 3 duplicate wells, read-out: PIM-1 kinase inhibitory activity (IC50).

Chain of PIM-1 kinase (P11309 whole entry): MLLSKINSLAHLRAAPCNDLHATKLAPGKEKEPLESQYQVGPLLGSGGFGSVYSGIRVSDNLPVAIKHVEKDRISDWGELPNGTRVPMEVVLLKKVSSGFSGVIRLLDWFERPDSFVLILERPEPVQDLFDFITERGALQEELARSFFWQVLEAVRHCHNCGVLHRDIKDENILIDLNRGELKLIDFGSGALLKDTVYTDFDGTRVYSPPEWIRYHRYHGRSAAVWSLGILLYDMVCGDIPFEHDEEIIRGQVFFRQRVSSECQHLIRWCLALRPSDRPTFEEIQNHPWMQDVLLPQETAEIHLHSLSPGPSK
Chain of PKCη (P24723 whole entry): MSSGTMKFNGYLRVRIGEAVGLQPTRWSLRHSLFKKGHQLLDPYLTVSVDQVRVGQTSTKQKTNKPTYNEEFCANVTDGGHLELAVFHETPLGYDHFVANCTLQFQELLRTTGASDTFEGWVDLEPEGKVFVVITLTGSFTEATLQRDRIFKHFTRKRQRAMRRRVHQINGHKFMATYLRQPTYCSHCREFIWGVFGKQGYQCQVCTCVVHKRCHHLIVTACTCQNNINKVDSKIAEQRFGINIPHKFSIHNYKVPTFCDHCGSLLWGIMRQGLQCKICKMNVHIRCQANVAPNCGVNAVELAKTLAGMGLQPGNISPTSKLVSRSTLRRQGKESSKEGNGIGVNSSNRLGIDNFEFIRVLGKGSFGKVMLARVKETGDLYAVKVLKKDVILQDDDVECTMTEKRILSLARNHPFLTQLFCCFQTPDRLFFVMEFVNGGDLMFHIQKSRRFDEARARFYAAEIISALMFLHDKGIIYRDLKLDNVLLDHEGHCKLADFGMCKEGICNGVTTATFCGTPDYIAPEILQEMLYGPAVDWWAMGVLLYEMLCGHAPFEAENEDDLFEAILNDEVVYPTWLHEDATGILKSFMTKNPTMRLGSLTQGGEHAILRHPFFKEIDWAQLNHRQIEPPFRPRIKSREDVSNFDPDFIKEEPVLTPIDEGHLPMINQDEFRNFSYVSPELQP
Chain of TRKA (P04629 33-796, species assumed): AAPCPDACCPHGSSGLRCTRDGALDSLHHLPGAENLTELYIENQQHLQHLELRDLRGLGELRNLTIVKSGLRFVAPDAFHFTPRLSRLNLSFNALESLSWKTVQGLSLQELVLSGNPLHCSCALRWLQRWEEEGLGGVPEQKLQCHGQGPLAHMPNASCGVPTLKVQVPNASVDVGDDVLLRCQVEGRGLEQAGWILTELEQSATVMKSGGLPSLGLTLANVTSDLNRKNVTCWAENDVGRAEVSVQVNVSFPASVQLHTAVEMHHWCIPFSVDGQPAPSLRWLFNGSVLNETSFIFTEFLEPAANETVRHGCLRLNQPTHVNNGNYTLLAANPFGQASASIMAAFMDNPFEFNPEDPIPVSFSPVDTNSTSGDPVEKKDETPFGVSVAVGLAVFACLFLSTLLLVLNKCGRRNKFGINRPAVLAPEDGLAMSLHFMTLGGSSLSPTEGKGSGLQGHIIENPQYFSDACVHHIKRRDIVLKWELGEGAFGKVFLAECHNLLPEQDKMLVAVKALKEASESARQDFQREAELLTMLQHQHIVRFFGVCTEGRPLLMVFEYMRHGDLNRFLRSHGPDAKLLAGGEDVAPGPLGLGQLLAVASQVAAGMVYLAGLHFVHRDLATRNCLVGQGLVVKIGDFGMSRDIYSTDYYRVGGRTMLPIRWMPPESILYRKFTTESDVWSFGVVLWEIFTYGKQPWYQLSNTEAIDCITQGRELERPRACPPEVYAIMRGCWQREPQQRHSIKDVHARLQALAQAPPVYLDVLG
Chain of PLK1 (P53350 whole entry, species assumed): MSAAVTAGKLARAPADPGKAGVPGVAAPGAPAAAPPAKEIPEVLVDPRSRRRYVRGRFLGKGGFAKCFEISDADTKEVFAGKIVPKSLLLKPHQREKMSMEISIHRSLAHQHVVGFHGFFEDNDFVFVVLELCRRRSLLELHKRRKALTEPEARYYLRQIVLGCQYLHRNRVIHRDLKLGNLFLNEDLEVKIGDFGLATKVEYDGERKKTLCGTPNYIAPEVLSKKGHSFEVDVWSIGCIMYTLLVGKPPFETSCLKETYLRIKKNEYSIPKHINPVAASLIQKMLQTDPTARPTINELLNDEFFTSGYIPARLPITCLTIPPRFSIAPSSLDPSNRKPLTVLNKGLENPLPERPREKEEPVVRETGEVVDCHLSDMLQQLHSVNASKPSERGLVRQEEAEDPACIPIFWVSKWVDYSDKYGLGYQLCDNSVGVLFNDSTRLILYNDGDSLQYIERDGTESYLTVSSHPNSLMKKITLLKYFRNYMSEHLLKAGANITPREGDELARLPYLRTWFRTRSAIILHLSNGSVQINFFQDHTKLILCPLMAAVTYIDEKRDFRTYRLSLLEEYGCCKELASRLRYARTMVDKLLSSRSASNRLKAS
Chain of PAK4 (O96013 whole entry, species assumed): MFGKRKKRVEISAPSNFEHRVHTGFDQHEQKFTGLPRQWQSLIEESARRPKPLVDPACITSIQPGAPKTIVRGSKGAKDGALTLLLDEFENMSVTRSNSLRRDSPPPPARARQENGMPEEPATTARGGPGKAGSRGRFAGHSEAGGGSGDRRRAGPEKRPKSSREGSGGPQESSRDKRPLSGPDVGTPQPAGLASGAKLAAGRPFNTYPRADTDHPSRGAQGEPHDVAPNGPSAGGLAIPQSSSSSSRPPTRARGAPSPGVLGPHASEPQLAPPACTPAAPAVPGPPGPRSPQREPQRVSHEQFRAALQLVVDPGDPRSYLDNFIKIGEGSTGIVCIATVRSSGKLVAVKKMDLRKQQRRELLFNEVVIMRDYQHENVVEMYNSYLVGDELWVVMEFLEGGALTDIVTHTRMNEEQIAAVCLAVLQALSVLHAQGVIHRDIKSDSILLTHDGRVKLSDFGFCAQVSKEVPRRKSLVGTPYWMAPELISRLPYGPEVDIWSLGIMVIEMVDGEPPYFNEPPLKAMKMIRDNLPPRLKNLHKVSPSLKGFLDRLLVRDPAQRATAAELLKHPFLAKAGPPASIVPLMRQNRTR
Chain of PKCδ (Q05655 whole entry): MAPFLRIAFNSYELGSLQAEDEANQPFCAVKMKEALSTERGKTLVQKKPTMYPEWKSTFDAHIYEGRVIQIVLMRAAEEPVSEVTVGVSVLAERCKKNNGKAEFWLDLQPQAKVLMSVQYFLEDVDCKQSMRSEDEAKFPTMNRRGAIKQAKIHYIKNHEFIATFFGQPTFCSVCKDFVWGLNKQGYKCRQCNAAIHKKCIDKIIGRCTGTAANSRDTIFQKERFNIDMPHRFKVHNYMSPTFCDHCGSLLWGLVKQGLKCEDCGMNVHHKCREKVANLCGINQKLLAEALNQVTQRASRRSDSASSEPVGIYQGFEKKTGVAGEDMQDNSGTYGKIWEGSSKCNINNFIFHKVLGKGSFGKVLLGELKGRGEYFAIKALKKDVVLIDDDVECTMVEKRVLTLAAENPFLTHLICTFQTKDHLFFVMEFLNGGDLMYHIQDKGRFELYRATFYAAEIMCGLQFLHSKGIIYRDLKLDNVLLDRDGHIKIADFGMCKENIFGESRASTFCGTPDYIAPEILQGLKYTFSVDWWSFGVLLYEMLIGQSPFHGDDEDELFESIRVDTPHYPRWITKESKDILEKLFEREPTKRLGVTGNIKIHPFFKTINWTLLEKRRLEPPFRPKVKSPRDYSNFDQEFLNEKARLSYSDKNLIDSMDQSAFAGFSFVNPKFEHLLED
Chain of ROCK2 (O75116 whole entry, species assumed): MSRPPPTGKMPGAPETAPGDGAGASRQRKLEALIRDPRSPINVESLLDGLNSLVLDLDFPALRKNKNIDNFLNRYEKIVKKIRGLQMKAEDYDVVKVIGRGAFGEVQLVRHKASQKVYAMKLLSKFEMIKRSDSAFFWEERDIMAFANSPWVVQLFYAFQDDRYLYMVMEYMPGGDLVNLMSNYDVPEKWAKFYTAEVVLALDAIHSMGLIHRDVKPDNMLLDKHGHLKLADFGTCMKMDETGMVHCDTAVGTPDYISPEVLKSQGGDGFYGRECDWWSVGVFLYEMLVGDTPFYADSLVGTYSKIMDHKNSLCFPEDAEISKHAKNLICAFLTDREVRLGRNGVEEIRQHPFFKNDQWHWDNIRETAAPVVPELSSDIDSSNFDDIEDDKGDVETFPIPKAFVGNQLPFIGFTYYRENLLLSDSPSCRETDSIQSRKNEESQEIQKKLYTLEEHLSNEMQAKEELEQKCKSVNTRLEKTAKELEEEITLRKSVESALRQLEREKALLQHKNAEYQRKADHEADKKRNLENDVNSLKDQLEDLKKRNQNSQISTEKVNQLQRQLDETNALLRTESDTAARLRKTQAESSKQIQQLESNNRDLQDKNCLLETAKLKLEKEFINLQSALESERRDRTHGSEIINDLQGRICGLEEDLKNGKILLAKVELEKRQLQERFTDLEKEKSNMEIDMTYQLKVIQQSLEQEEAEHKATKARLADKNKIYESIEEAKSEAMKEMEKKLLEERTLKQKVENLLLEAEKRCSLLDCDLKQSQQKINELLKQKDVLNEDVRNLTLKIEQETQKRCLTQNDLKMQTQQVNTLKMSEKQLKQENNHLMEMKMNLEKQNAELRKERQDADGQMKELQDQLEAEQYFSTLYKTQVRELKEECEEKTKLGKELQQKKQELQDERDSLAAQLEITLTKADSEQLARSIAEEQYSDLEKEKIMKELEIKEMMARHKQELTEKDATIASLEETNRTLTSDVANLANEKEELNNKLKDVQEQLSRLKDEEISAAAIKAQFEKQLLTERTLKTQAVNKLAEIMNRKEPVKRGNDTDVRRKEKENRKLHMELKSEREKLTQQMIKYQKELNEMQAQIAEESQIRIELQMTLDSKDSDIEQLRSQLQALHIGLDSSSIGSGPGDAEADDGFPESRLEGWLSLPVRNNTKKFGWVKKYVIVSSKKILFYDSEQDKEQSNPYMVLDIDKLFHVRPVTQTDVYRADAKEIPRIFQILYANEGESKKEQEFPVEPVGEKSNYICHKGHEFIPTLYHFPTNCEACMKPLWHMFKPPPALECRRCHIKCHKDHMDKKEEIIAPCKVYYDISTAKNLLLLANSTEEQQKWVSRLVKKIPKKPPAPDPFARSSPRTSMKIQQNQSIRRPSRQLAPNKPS

Regarding `CCC(=O)N(C)[C@@H]1C[C@H]2O[C@@](C)([C@@H]1OC)n1c3ccccc3c3c4c(c5c6ccccc6n2c5c31)C(=O)NC4=O` [Compound 1], the IC50 in experiment [1] (setting [12]) was found to be 41 nM.
In the case of `CCCC(=O)N(C)[C@@H]1C[C@H]2O[C@@](C)([C@@H]1OC)n1c3ccccc3c3c4c(c5c6ccccc6n2c5c31)C(=O)NC4=O` [Compound 2], in experiment [1] (setting [12]), the IC50 turned out to be 83 nM.
As to `CCCCC(=O)N(C)[C@@H]1C[C@H]2O[C@@](C)([C@@H]1OC)n1c3ccccc3c3c4c(c5c6ccccc6n2c5c31)C(=O)NC4=O` [Compound 3], in experiment [1] (setting [12]), the IC50 is above 1000 nM.
Still for that read-out and setting: then `CCCCCC(=O)N(C)[C@@H]1C[C@H]2O[C@@](C)([C@@H]1OC)n1c3ccccc3c3c4c(c5c6ccccc6n2c5c31)C(=O)NC4=O` [Compound 4], with above 1000 nM; and `CCCCCCC(=O)N(C)[C@@H]1C[C@H]2O[C@@](C)([C@@H]1OC)n1c3ccccc3c3c4c(c5c6ccccc6n2c5c31)C(=O)NC4=O` [Compound 5], with above 1000 nM.
Consider `CCCCCCCC(=O)N(C)[C@@H]1C[C@H]2O[C@@](C)([C@@H]1OC)n1c3ccccc3c3c4c(c5c6ccccc6n2c5c31)C(=O)NC4=O` [Compound 6], for which, in [1] (setting [12]), the IC50 was above 1000 nM.
Regarding `CN[C@@H]1C[C@H]2O[C@@](C)([C@@H]1OC)n1c3ccccc3c3c4c(c5c6ccccc6n2c5c31)C(=O)NC4=O` [Compound 7OSTA, 7-carbonylstaurosporine], the IC50 in [2] is above 1000 nM; in [1] it was 5.4 nM; in experiment [3] it was 35.9 nM; in experiment [4], 2.4 nM; in [5], 2.1 nM; in experiment [6] it was 1.4 nM. The IC50 in experiment [7] was found to be 15.3 nM; in [8], 0.4 nM; in experiment [9] it was 308 nM; in [10], 2.3 nM; in experiment [11] it was 37 nM.
For the compound `CO[C@@H]1[C@H](N(C)C(=O)C2CC2)C[C@H]2O[C@]1(C)n1c3ccccc3c3c4c(c5c6ccccc6n2c5c31)C(=O)NC4=O` [Compound 7], the IC50 in experiment [1] (setting [12]) stood at 445 nM.
Same read-out and setting: the value for `CO[C@@H]1[C@H](N(C)C(=O)c2cccs2)C[C@H]2O[C@]1(C)n1c3ccccc3c3c4c(c5c6ccccc6n2c5c31)C(=O)NC4=O` [Compound 8] was 52.4 nM.
Same read-out and setting: the value for `CO[C@@H]1[C@H](N(C)C(=O)c2ccc3c(c2)OCO3)C[C@H]2O[C@]1(C)n1c3ccccc3c3c4c(c5c6ccccc6n2c5c31)C(=O)NC4=O` [Compound 9] was above 1000 nM; that for `CO[C@@H]1[C@H](N(C)C(=O)C=C(C)C)C[C@H]2O[C@]1(C)n1c3ccccc3c3c4c(c5c6ccccc6n2c5c31)C(=O)NC4=O` [Compound 10] was 81.4 nM; that for `CO[C@@H]1[C@H](N(C)C(=O)/C=C/c2ccccc2)C[C@H]2O[C@]1(C)n1c3ccccc3c3c4c(c5c6ccccc6n2c5c31)C(=O)NC4=O` [Compound 11] was above 1000 nM.
The same measure, in the same setting: the value for `CO[C@@H]1[C@H](N(C)C(=O)CCC(=O)O)C[C@H]2O[C@]1(C)n1c3ccccc3c3c4c(c5c6ccccc6n2c5c31)C(=O)NC4=O` [Compound 12] was 42.9 nM; that for `CO[C@@H]1[C@H](N(C)C(=O)CCCC(=O)O)C[C@H]2O[C@]1(C)n1c3ccccc3c3c4c(c5c6ccccc6n2c5c31)C(=O)NC4=O` [Compound 13] was 39.1 nM; that for `CO[C@@H]1[C@H](N(C)C(=O)CSCC(=O)O)C[C@H]2O[C@]1(C)n1c3ccccc3c3c4c(c5c6ccccc6n2c5c31)C(=O)NC4=O` [Compound 14] was 53.8 nM.
Turning to `CO[C@@H]1[C@H](N(C)C(=O)CCCCC(=O)O)C[C@H]2O[C@]1(C)n1c3ccccc3c3c4c(c5c6ccccc6n2c5c31)C(=O)NC4=O` [Compound 15], the IC50 in [1] (setting [12]) was found to be 61.1 nM.
On the same count and under the same terms, then `CO[C@@H]1[C@H](N(C)C(=O)CCCCCCC(=O)O)C[C@H]2O[C@]1(C)n1c3ccccc3c3c4c(c5c6ccccc6n2c5c31)C(=O)NC4=O` [Compound 16], with 65.9 nM; and `CO[C@@H]1[C@H](N(C)C(=O)CCC(=O)Nc2cc[nH]n2)C[C@H]2O[C@]1(C)n1c3ccccc3c3c4c(c5c6ccccc6n2c5c31)C(=O)NC4=O` [Compound 18], with 32.4 nM; and `CC(C)(O)[C@H]1CC[C@H](Nc2ccc3ncc(-c4cccc(C(F)(F)F)c4)n3n2)CC1` [TP-3654, reference compound], with 31.1 nM.
